The results in this text go back to the supplement of paper PMC13380429.

Conditions in all cases: 72 h
Experiment [1] has as its system Vero E6. As to the kind of experiment: drug sensitivity score (DSS) for viability; higher = more toxic; extreme values may be limits of the assay.
In experiment [2] the test system is Vero E6. As to the kind of experiment: cell viability relative to DMSO; higher = less toxic.
Experiment [3] concerns Vero E6. Nature of the experiment: relative viability EC50 (midpoint between 100% and the lowest measured viability); higher = less toxic.
Experiment [4] concerns HepG2. As to the kind of experiment: drug sensitivity score (DSS) for viability; higher = more toxic; extreme values may be limits of the assay.
The test system of experiment [5] is Calu-3. Described as above.
For experiment [6], the system named is U2OS. The experiment is described as above.
Experiment [7] relates to Caco-2. The experiment is described as above.
The subject of experiment [8] is HepG2. Nature of the experiment: cell viability relative to DMSO; higher = less toxic.
The subject of experiment [9] is Caco-2. Described as above.
Experiment [10] deals with U2OS. The description is as above.
In experiment [11] the test system is HepG2. As to the kind of experiment: relative viability EC50 (midpoint between 100% and the lowest measured viability); higher = less toxic.
Experiment [12] relates to Caco-2. The description is as above.
Experiment [13] has as its system U2OS. The description is as above.
The subject of experiment [14] is Calu-3. As to the kind of experiment: cell viability relative to DMSO; higher = less toxic.
Experiment [15] deals with Calu-3. Nature of the experiment: relative viability EC50 (midpoint between 100% and the lowest measured viability); higher = less toxic.

For `COc1ccc(-c2oc3c(CC=C(C)C)c(O)cc(O)c3c(=O)c2O)cc1` [icaritin], in the experiment on Vero E6 [1], the drug sensitivity score is 0. For the same compound, the cell viability – broadly, a read-out of living cells in per cent, often relative to untreated cells – in the experiment with Vero E6 [2] (1 nM) stood at 92.9%; with Vero E6 [2] (10 nM) it was 98.9%; in the experiment with Vero E6 [2] (100 nM), 96.7%; in the experiment with Vero E6 [2] (1000 nM), 93.3%; in the experiment with Vero E6 [2] (10000 nM), 107%. In addition, the “relative viability EC50” value in the experiment on Vero E6 [3] was greater than 10 µM.

Consider `Cc1cccc(C)c1NC(=O)/N=C1\CCCN1C` [xilobam], for which the drug sensitivity score in the experiment with HepG2 [4], with Calu-3 [5], in the experiment on Vero E6 [1] and in the experiment on U2OS [6] was 0 in each case.

With `CCc1cc2c(cc1N1CCC(N3CCOCC3)CC1)C(C)(C)c1[nH]c3cc(C#N)ccc3c1C2=O` [alectinib], the drug sensitivity score in the experiment on HepG2 [4] was 0.9; with Caco-2 [7], 0; in the experiment with Vero E6 [1], 0; in the experiment with U2OS [6], 0. In addition, the cell viability stood at 101% in the experiment on HepG2 [8] (1 nM); 99.9% in the experiment with HepG2 [8] (10 nM); 104% with HepG2 [8] (100 nM); 100% in the experiment on HepG2 [8] (1000 nM); 75.9% in the experiment with HepG2 [8] (10000 nM); 98.7% in the experiment on Caco-2 [9] (1 nM). Moreover, the cell viability is 96.8% in the experiment with Caco-2 [9] (10 nM); 110% in the experiment on Caco-2 [9] (100 nM); 103% in the experiment on Caco-2 [9] (1000 nM); 106% with Caco-2 [9] (10000 nM); 96% in the experiment with Vero E6 [2] (1 nM); 94.3% in the experiment on Vero E6 [2] (10 nM). Also, the cell viability with Vero E6 [2] (100 nM) is 96.1%; in the experiment with Vero E6 [2] (1000 nM) it was 93.7%; with Vero E6 [2] (10000 nM), 89%; with U2OS [10] (1 nM), 102%; in the experiment with U2OS [10] (10 nM), 100%; with U2OS [10] (100 nM), 102%. Moreover, the cell viability in the experiment with U2OS [10] (1000 nM) was 95.9%; in the experiment with U2OS [10] (10000 nM), 102%. Further, the “relative viability EC50” value in the experiment on HepG2 [11], with Caco-2 [12], in the experiment with Vero E6 [3] and in the experiment on U2OS [13] was greater than 10 µM in each case.

Turning to `CC(C)(C)c1cc(/C=C(\C#N)C(N)=S)cc(C(C)(C)C)c1O` [tyrphostin-AG-879], the drug sensitivity score in the experiment on HepG2 [4] turned out to be 3.6; in the experiment on Calu-3 [5] it was 2.9; with Caco-2 [7], 3.8; with Vero E6 [1] it was 2.6; with U2OS [6] it was 1.8. Moreover, the cell viability was found to be 93.6% in the experiment with HepG2 [8] (1 nM); 94.7% in the experiment on HepG2 [8] (10 nM); 104% with HepG2 [8] (100 nM); 106% in the experiment on HepG2 [8] (1000 nM); 27.5% with HepG2 [8] (10000 nM); 101% in the experiment with Calu-3 [14] (1 nM). Besides, the cell viability in the experiment with Calu-3 [14] (10 nM) was 97.1%; in the experiment on Calu-3 [14] (100 nM), 99.4%; in the experiment on Calu-3 [14] (1000 nM), 91%; in the experiment with Calu-3 [14] (10000 nM), 66.8%; in the experiment with Caco-2 [9] (1 nM), 99.3%; with Caco-2 [9] (10 nM), 94.6%. Further, the cell viability with Caco-2 [9] (100 nM) came out at 96.9%; with Caco-2 [9] (1000 nM) it was 93.2%; in the experiment with Caco-2 [9] (10000 nM), 50.5%; with Vero E6 [2] (1 nM), 97.4%; with Vero E6 [2] (10 nM), 97.5%; in the experiment with Vero E6 [2] (100 nM) it was 94.3%. Besides, the cell viability was 100% in the experiment on Vero E6 [2] (1000 nM); 51% with Vero E6 [2] (10000 nM); 98.9% with U2OS [10] (1 nM); 98.7% in the experiment on U2OS [10] (10 nM); 98.7% in the experiment with U2OS [10] (100 nM); 98.2% in the experiment on U2OS [10] (1000 nM). In addition, in the experiment with U2OS [10] (10000 nM), the cell viability amounted to 65.7%. The “relative viability EC50” value in the experiment on HepG2 [11] was 3.56 µM.

`COC(=O)C1=C(C)NC(C)=C(C(=O)OCC(C)C)C1c1ccccc1[N+](=O)[O-]` (stereo not given) [nisoldipine]: the drug sensitivity score in the experiment with HepG2 [4] is 4.4; with Calu-3 [5], 0; in the experiment on Caco-2 [7], 2.8; in the experiment on Vero E6 [1] it was 2.8; with U2OS [6] it was 2.6. The cell viability with HepG2 [8] (1 nM) was found to be 100%; with HepG2 [8] (10 nM) it was 98.7%; with HepG2 [8] (100 nM), 104%; in the experiment with HepG2 [8] (1000 nM), 92.4%; in the experiment with HepG2 [8] (10000 nM) it was 42.6%; with Calu-3 [14] (1 nM), 97.6%. The cell viability was determined as 106% with Calu-3 [14] (10 nM); 107% with Calu-3 [14] (100 nM); 94.6% in the experiment on Calu-3 [14] (1000 nM); 103% in the experiment with Calu-3 [14] (10000 nM); 98.2% with Caco-2 [9] (1 nM); 109% in the experiment with Caco-2 [9] (10 nM). The cell viability was found to be 99.1% with Caco-2 [9] (100 nM); 93.8% in the experiment with Caco-2 [9] (1000 nM); 63.1% in the experiment on Caco-2 [9] (10000 nM); 100% with Vero E6 [2] (1 nM); 101% with Vero E6 [2] (10 nM); 102% in the experiment with Vero E6 [2] (100 nM). For the same compound, the cell viability in the experiment on Vero E6 [2] (1000 nM) was found to be 94.6%; in the experiment on Vero E6 [2] (10000 nM), 60.7%; with U2OS [10] (1 nM) it was 101%; in the experiment on U2OS [10] (10 nM) it was 106%; with U2OS [10] (100 nM), 102%; in the experiment with U2OS [10] (1000 nM) it was 99.4%. For the same compound, in the experiment on U2OS [10] (10000 nM), the cell viability stood at 51.1%. Also, the “relative viability EC50” value is 2.1 µM in the experiment on HepG2 [11] and greater than 10 µM in the experiment with Calu-3 [15].

Turning to `O.O.O.O.O=C([O-])CC(O)(CC(=O)[O-])C(=O)[O-].[Li+].[Li+].[Li+]` [lithium-citrate], the drug sensitivity score in the experiment on Calu-3 [5], in the experiment with Vero E6 [1] and with U2OS [6] was 0 in each case.
